# Tested on: HMGB1
# Test: HMGB1 release detection (ELISA)
# Type: cell-based, murine
# Settings: NQO1+ tumor cells (MC38, TC-1, NQO1-overexpressing B16), β-lap 3 hr, 24 hr later
# Description: FIGS. 5A-F. β-Lap treatment-induced HMGB1 release enhances tumor immunogenicity and triggers antitumor T cell immunity in vivo. (FIG. 5A) MC38, TC-1 and B16 (NQO null and overexpression clones) were treated with β-lap for 3 hr followed by washing and replacing medium. The level of HMGB1 released into the culture supernatant was determined by ELISA 24 hr later. (FIG. 5B) The research schema for in vivo cross-presentation of tumor specific antigen from β-lap-induced dying tumor cells in FIG. 5C and FIG. 5D. (FIGS. 5C-D) Live or β-lap-induced dying MC38-OVA cells were subcutaneously inoculated into the flank of WT or Tlr4^−/− C57BL/6 (n=3-4/group) mice along with or without anti-HMGB1 antibody. […] IFNγ producing cells were determined by ELISPOTs assay (FIG. 5C), and IFNγ secretion level was quantified by CBA mouse IFNγ assay (FIG. 5D). […] Data are shown as mean±SEM from at least two to three independent experiments. *P<0.05, **P<0.01, and ***P<0.001 determined by two-way ANOVA (FIG. 5C and FIG. 5D) or log-rank test (FIG. 5F).
# FIGS. 25A-E. IB-DNQ induces tumor ICD and dendritic cell-mediated T cell cross-priming. […] MC38, MC38 NOQ1^−/−, B16, and B16 NOQ1^+ cells were treated with IB-DNQ for 4 h followed by replacing medium and growth for 24 h, culture supernatant was collected and HMGB1 levels were determined by ELISA. […]
smiles,measurement,value
"CC1(C)CCC2=C(O1)c1ccccc1C(=O)C2=O [β-lap, β-lapachone]",HMGB1 secretion,dose-dependent secretion of HMGB1
